This note sets out measurements from patent US6555114B1, “Immunodominant human T-cell epitopes of hepatitis C virus” (Innogenetics N.V., priority 1993, dated 2003).

Experiment [1] concerns PBMC from 32 patients with chronic HCV. The experiment can be described thus: T cell proliferation assay ((3H)-thymidine incorporation, stimulation index) with PBMC of chronic HCV patients. Particulars: for lymphoproliferative response (LPR) to peptide pools and single peptides: IFN responder, LPR to pools 2 and/or 3. The class given is cell-based, human. For orientation: Uptake of a labelled nucleoside into DNA is a usual measure of proliferation.

In experiment [2] the test system is PBMC's from 18 healthy control subjects. As to the kind of experiment: T cell proliferation assay with PBMC of healthy control subjects. The format is cell-based, human. As to conditions: 17 control subjects, 23 proliferation assays. On the procedure:
As controls for the specificity of the lymphoproliferative responses, 18 healthy individuals aged 25-58 years (mean 38.6), 10 males and 8 females were selected. These subjects were negative for HCV antibodies and HCV-RNA.
The medium used for all cell cultures consisted of RPMI 1640 supplemented with 25 mM HEPES, 2 mM L-glutamine, 50 U/ml penicillin and 50 μg/ml streptomycin (all from Gibco Europe, Gent, Belgium), 5×10^−5 M 2-mercaptoethanol (Sigma, St. Louis, Mo.) and 10% heat-inactivated pooled human AB serum. This AB serum was obtained from healthy blood donors with blood group AB^+ and was only used when antibodies to HCV and HCV-RNA were absent. This “complemented” RPMI 1640 medium will hereafter be designated “complete medium”.
PBMC were isolated from heparinized venous blood by isopycnic density centrifugation on Ficoll Hypaque (Lymphoprep, Nyegaard, Denmark) and suspended in complete medium. […] PBMC in 200 μl of complete medium were cultured in 96 well round-bottomed microplates (Falcon Plastics) in the absence (unstimulated controls) or presence of varying concentrations of antigens for 5 days at 37° C. in an atmosphere of 5% CO2 in air. 0.5 μCi (^3H)-thymidine was then added to each well and 16 to 20 h later the cultures were harvested onto glass fiber filters using a multichannel cell harvester (PHD, Cambridge, Mass.) to measure the incorporation of (^3H)-thymidine by liquid scintillation counting in an LKB-Wallac 8100 counter (LKB, Bromma, Sweden). Results are expressed as stimulation index (SI; mean cpm of antigen-stimulated cultures/mean cpm of control cultures). Proliferation was considered positive when stimulation index was >3. In some figures the results are expressed as cpm (mean cpm of antigen-stimulated cultures—mean cpm of control cultures). Standard deviations of the mean cpm of triplicate cultures were consistently below 10%.
To analyze and summarize the results of 135 assays performed in the 32 HCV patients, we have chosen to consider the response of an individual patient to a particular antigen preparation (peptide pools 1 to 9, NS1-5*, NS1-7* or NS3 protein) as significant when it induces SI's 3 in at least half of the assays performed. The results shown in Table 4 have been obtained using this scoring method. […] The start of the Interferon therapy serves as the reference point, week 0. None of the patients responded to all the antigens. PBMC's from 13 of 18 (72%) clinical responders and 12 of 14 (85%) non-responders proliferated in response to at least one antigen preparation. All but one antigen preparation, peptide pool 8, induced a proliferative response in at least one subject. The most frequent responses were to peptide pools 2 and 3. Whereas both interferon-responders and non-responders proliferated equally well to peptide pool 2 (56% and 57%, respectively), non-responders reacted less well to peptide pool 3 (29% or 4 of 14) than responders (44% or 8 of 18). […] Clinical non-responders to interferon therapy also reacted more frequently (57 or 8 of 14) upon stimulation with the NS3 protein than responders (24% or 4 of 17). However, none of these differences in proliferative response rates to peptide pools 3, 5 and 9 or to NS3 protein reached statistical significance ([…] in ^2-test). […] Indeed, 8 of 17 responders recognized one or both peptides while none of the non-responders did so. A summary of the results of all these proliferation assays is provided in FIG. 2, in which the response rates of the HCV patients as well as 18 healthy control subjects towards the 12 antigen preparations. Indeed, to establish the relevance of the proliferative responses observed in HCV patients, PBMC's from 18 healthy control subjects were stimulated with the same antigen preparations. Overall, 27 assays were performed: a single assay in 10 subjects, two in 7 volunteers and 3 in one individual. In 12 control subjects none of the antigens induced a proliferative response. […]

[3] abbreviates: patient 626, αIFN responder (R), week 14 of αIFN therapy.
Setting [4] is: patient 627, αIFN non-responder (NR), week 54 of αIFN therapy.
Where [5] appears, read: patient 636, αIFN responder (R), week 28 of αIFN therapy.
The mark [6] stands for this setting: patient 637, αIFN non-responder (NR), week 45 of αIFN therapy.

Take LLSCLTVPASAYQVRNSTGL [C31]: the “stimulation index (SI), T-cell recognition” value (“stimulation index (SI)” below) was “— (Only SI equal or greater than 3 are shown.)” in experiment [1] (patient 620, αIFN non-responder (NR), week 20 of αIFN therapy); “— (Only SI equal or greater than 3 are shown.)” in experiment [1] (setting [3]); “— (Only SI equal or greater than 3 are shown.)” in experiment [1] (setting [4]); “— (Only SI equal or greater than 3 are shown.)” in experiment [1] (setting [5]); “— (Only SI equal or greater than 3 are shown.)” in experiment [1] (setting [6]). In addition, in experiment [1] (patient 639, pools 4 assays, single peptides 2 assays), the “lymphoproliferative response (LPR) to peptide pools and single peptides” value is “+ (significant when it induces SI's 3 in at least half of the assays performed)”. Besides, the “number of control subjects that recognized the single peptide” value (from here on “number”) in experiment [2] worked out at 1. Also, the “share of control subjects that recognized the single peptide” value (“share” for short) in experiment [2] worked out at 6%.
Turning to “LLSPRGSRPSWGPTDPRRRS (hepatitis C virus) [C17]”, the “stimulation index (SI)” value in experiment [1] (setting [3]), in experiment [1] (setting [4]), in experiment [1] (setting [5]) and in experiment [1] (setting [6]) was “— (Only SI equal or greater than 3 are shown.)” in each case. In addition, the “number” value in experiment [2] amounted to 2. In experiment [2], the “share” value is 12%.
Regarding “KVIDTLTCGFADLMGYIPLV (hepatitis C virus) [C21]”, the “LPR in αIFN responders (summary of Table 7)” value in experiment [1] (both αIFN responders tested) is recorded as “highest LPR”. The “stimulation index (SI)” value was 3.3 in experiment [1] (setting [3]), 3.6 in experiment [1] (setting [4]), “— (Only SI equal or greater than 3 are shown.)” in experiment [1] (setting [5]) and “— (Only SI equal or greater than 3 are shown.)” in experiment [1] (setting [6]). In addition, the “lymphoproliferative response (LPR) to peptide pools and single peptides” value in experiment [1] (patient 632, pools 8 assays, single peptides 4 assays) is “+ (significant when it induces SI's 3 in at least half of the assays performed)”. In experiment [1] (two αIFN non-responders), the “LPR in αIFN non-responders (summary of Table 7)” value is “high PLR”. For the same sequence, the “number” value in experiment [2] is on record as 1. Moreover, the “share” value in experiment [2] is recorded as 6%.
